For eight compounds, IC50 results are on record in patent publication US12473304B2, “Heterocyclic PAD4 inhibitors” (BRISTOL-MYERS SQUIBB COMPANY, priority 2020, dated 2025).

The assay deals with human PAD4 (hPAD4) (Homo sapiens (Human), UniProt Q9UM07). Kind of assay: RFMS Human PAD4 Functional Assay 1. The note with it: RFMS assay 1; 5 nM hPAD4, 250 μM BAEE substrate, 50 μM calcium, 37° C. It counts as biochemical. Summed up: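 Recombinant hPAD4 (5 nM) was preincubated with compound (top 50 μM, 0.5% DMSO) for 30 min at 37 °C, then reacted with 250 μM BAEE for 90 min at 37 °C in pH 7.5 HEPES buffer with 50 μM calcium and 5 μM TPEN. Product was derivatized with phenyl glyoxal and quantified by RapidFire MS.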
Chain of human PAD4 (hPAD4) (Q9UM07 whole entry): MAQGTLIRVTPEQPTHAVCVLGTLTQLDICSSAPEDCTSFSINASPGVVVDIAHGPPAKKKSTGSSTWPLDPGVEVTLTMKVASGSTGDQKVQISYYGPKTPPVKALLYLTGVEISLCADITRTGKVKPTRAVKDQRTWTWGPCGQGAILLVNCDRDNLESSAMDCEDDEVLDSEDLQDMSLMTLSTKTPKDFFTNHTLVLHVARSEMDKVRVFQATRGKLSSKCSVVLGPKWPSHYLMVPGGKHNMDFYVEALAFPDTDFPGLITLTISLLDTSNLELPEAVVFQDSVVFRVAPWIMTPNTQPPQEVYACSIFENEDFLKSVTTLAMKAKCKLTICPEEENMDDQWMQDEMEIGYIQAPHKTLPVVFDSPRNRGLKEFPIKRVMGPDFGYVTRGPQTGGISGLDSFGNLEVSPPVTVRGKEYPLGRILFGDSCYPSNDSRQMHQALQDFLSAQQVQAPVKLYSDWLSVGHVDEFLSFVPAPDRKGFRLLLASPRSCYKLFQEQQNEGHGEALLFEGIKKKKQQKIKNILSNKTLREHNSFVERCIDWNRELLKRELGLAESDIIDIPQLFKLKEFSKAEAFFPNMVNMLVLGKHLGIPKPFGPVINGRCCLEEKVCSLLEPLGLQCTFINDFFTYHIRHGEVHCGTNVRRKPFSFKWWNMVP
For orientation: IC50 means the point on the concentration scale where inhibition reaches its midpoint. Take `COc1cc(C(=O)N2CCC[C@@H](N)C2)cn2nc(-c3cc4cccc(C5CN(C(=O)[C@H]6CC[C@H](O)CC6)C5)c4n3CC3CC3)c(C)c12` [Example 517, ((R)-3-Aminopiperidin-1-yl)(2-(1-(cyclopropylmethyl)-7-(1-((1r,4r)-4-hydroxycyclohexane-1-carbonyl)azetidin-3-yl)-1H-indol-2-yl)-4-methoxy-3-methylpyrazolo[1,5-a]pyridin-6-yl)methanone]: the 50% inhibitory concentration (IC50) is 60 nM. As to `COc1cc(C(=O)N2C[C@H](N)C[C@@H](F)C2)cn2nc(-c3cc4cccc(C5CN(C(=O)C(C)(C)OC)C5)c4n3CC3CC3)c(C)c12` [Example 518, 1-(3-(2-(6-((3R,5R)-3-Amino-5-fluoropiperidine-1-carbonyl)-4-methoxy-3-methylpyrazolo[1,5-a]pyridin-2-yl)-1-(cyclopropylmethyl)-1H-indol-7-yl)azetidin-1-yl)-2-methoxy-2-methylpropan-1-one], the IC50 worked out at 260 nM. The figure for `COc1cc(C(=O)N2C[C@H](N)C[C@@H](F)C2)cn2nc(-c3cc4cccc(C5CN(C(=O)[C@H]6CC[C@@H](O)CC6)C5)c4n3CC3CC3)c(C)c12` [Example 519, ((3R,5R)-3-Amino-5-fluoropiperidin-1-yl)(2-(1-(cyclopropylmethyl)-7-(1-((1s,4s)-4-hydroxycyclohexane-1-carbonyl)azetidin-3-yl)-1H-indol-2-yl)-4-methoxy-3-methylpyrazolo[1,5-a]pyridin-6-yl)methanone] is 40 nM; for `COc1cc(C(=O)N2CCC[C@@H](N)C2)cn2nc(-c3cc4cccc(C5CN(C(=O)[C@H]6CC[C@@H](O)CC6)C5)c4n3CC3CC3)c(C)c12` [Example 520, ((R)-3-Aminopiperidin-1-yl)(2-(1-(cyclopropylmethyl)-7-(1-((1s,4s)-4-hydroxycyclohexane-1-carbonyl)azetidin-3-yl)-1H-indol-2-yl)-4-methoxy-3-methylpyrazolo[1,5-a]pyridin-6-yl)methanone] it is 220 nM. On to `COc1cc(C(=O)N2CCC[C@@H](N)C2)cn2nc(-c3cc4cccc(C5CN(C(=O)[C@H](C)OC)C5)c4n3CC3CC3)c(C)c12` [Example 523, (S)-1-(3-(2-(6-((R)-3-Aminopiperidine-1-carbonyl)-4-methoxy-3-methylpyrazolo[1,5-a]pyridin-2-yl)-1-(cyclopropylmethyl)-1H-indol-7-yl)azetidin-1-yl)-2-methoxypropan-1-one], for which the IC50 was 400 nM. The figure for `COc1cc(C(=O)N2C[C@H](N)C[C@@H](F)C2)cn2nc(-c3cc4cccc(C5CN(C(=O)[C@H](C)OC)C5)c4n3CC3CC3)c(C)c12` [Example 524, (S)-1-(3-(2-(6-((3R,5R)-3-Amino-5-fluoropiperidine-1-carbonyl)-4-methoxy-3-methylpyrazolo[1,5-a]pyridin-2-yl)-1-(cyclopropylmethyl)-1H-indol-7-yl)azetidin-1-yl)-2-methoxypropan-1-one] is 280 nM; for `COc1cc(C(=O)N2CCC[C@@H](N)C2)cn2nc(-c3cc4cccc(C5CN(C(=O)[C@@H](C)OC)C5)c4n3CC3CC3)c(C)c12` [Example 525, (R)-1-(3-(2-(6-((R)-3-Aminopiperidine-1-carbonyl)-4-methoxy-3-methylpyrazolo[1,5-a]pyridin-2-yl)-1-(cyclopropylmethyl)-1H-indol-7-yl)azetidin-1-yl)-2-methoxypropan-1-one] it is 90 nM.

With `COc1cc(C(=O)N2C[C@H](N)C[C@@H](F)C2)cn2nc(-c3cc4cccc(C5CN(C(=O)[C@@H](C)OC)C5)c4n3CC3CC3)c(C)c12` [Example 526, (R)-1-(3-(2-(6-((3R,5R)-3-Amino-5-fluoropiperidine-1-carbonyl)-4-methoxy-3-methylpyrazolo[1,5-a]pyridin-2-yl)-1-(cyclopropylmethyl)-1H-indol-7-yl)azetidin-1-yl)-2-methoxypropan-1-one], the concentration for half-maximal inhibition (IC50) turned out to be 260 nM.
